Several values for one entry are separate records, joined by “and”; a condition that tells them apart may be missing. Identical values can stand only once. Activity calls are given as the source filed them. No rule for the calls is given here.
Experiment: non-covalent RecA intein splicing inhibitors, dose response, biochemical, cell-free, fluorescence, secondary screen (AID 449750)
In the case of N#Cc1ccc(-n2c(-c3ccccc3)nnc2-c2ccccc2)cc1C#N, the AC50 is reported as > 38 µM (inactive).
With Cc1cccc(NC2=C(Cl)C(=O)OC2OC(=O)c2ccco2)c1 (configuration not stated) the AC50 was > 38 µM (inactive).
Cc1[nH]n(-c2ccccc2)c(=O)c1C(c1cccc([N+](=O)[O-])c1)c1c(C)[nH]n(-c2ccccc2)c1=O gave an AC50 of 8.53 µM.
N=c1c2c(-c3ccccc3)c(-c3ccccc3)n(Cc3ccco3)c2ncn1Cc1ccco1 showed an AC50 of 6.99 µM.
In the case of CCN1CCN(C(c2cccnc2)c2cc(Cl)c3cccnc3c2O)CC1 (configuration not stated), the AC50 is reported as 16 µM.
In the case of Cc1[nH][nH]c(=O)c1C(c1ccc(Cl)cc1)c1c(C)[nH][nH]c1=O, the AC50 is reported as 18.1 µM.
In the case of Cc1[nH]nc2c1C(c1cccc(OC(=O)N3CCOCC3)c1)C(C#N)=C(N)O2 (configuration not stated), the AC50 is reported as > 38 µM (inactive).
In the case of Cc1ccc(CNC(=O)CCN2C(=O)[C@@H]3Cc4ccccc4CN3C2=O)cc1, the AC50 is reported as > 38 µM (inactive).
In the case of Cc1ccc(S(=O)(=O)/N=C2/C=C(C3C(=O)CC(C)(C)CC3=O)C(=O)c3ccccc32)cc1, the AC50 is reported as > 38 µM (inactive).
In the case of COc1ccc(/C(=N/OC(C)=O)c2nccc3cc(OC)c(OC)cc23)cc1OC, the AC50 is reported as > 38 µM (inactive).
Cc1cccc(Nc2nc(NCc3ccco3)c3ccccc3n2)c1 showed an AC50 of 8.01 µM.
With Cc1cc2nc(Sc3c([N+](=O)[O-])nc(C)n3Cc3ccccc3)[nH]c2cc1C the AC50 was > 38 µM (inactive).
For CN1CCN(Cc2cc(=O)oc3ccc(Cl)cc23)CC1, the AC50 was > 38 µM (inactive).
With CC(Oc1ccc(F)cc1)C(=O)Oc1ccc(N(C)S(=O)(=O)c2ccccc2)cc1 (configuration not stated) the AC50 was > 38 µM (inactive).
In the case of O=C(CCNc1cccc(F)c1)c1cccc([N+](=O)[O-])c1, the AC50 is reported as > 38 µM (inactive).
For Cn1c(SCC(=O)NCC2CCCO2)ncc(C(=O)Nc2ccc(Cl)cc2)c1=O (configuration not stated), the AC50 was > 38 µM (inactive).
O=C(CCl)N1CCCC1c1ccc2c(c1)OCCO2 (configuration not stated) gave an AC50 of 4.86 µM.
Cc1ccc(NC2=CC(=O)C(=O)c3ccccc32)cc1 gave an AC50 of 6.16 µM.
Work on CCCNC(=O)c1nnsc1S(=O)c1ccc(Cl)cc1 (configuration not stated) yielded an AC50 of 32.9 µM.
In the case of Cc1ccsc1C=Nc1ccc(O)cc1, the AC50 is reported as > 38 µM (inactive).
Cc1ccc(NC2=C(NC(=O)c3ccccc3)C(=O)c3ccccc3C2=O)cc1Cl gave an AC50 of 7.45 µM.
Work on CCOC(=O)C1CCN(C(=O)c2c(C)oc3c2C(=O)c2ccccc2C3=O)CC1 yielded an AC50 of 21 µM.
With O=C1/C(=C\c2cccc(O)c2O)SC(=S)N1Cc1ccccc1 the AC50 was > 38 µM (inactive).
In the case of COc1ccc2noc3c2c1C(=O)c1ccccc1-3, the AC50 is reported as 24.8 µM.
With O=c1[nH]cc(N=Cc2cc(Cl)cc(Cl)c2O)c(=O)[nH]1 the AC50 was > 38 µM (inactive).
O=C(CCCN1C(=O)/C(=C/c2ccccc2)SC1=S)Nc1ccc(C(=O)O)c(O)c1 showed an AC50 of 33.8 µM.
CC(C)OC(=O)CN1C(=O)C(=O)c2ccccc21 gave an AC50 of 37.2 µM.
With N#CC(c1ccccc1)c1cnccn1 (configuration not stated) the AC50 was > 38 µM (inactive).
With CCOc1cc(C2C(C#N)=C(N)Oc3n[nH]c(CC)c32)ccc1OCCN1CCOCC1 (configuration not stated) the AC50 was > 38 µM (inactive).
Work on C=CCOc1ccccc1CN(C(=O)CCl)c1ccc2c(c1)OCO2 yielded an AC50 of 1.28 µM.
Cc1ccc(S(=O)(=O)Nc2c(O)ccc3ccccc23)cc1 showed an AC50 of 8.05 µM.
For O=c1[nH]c(N2CCOCC2)cc2ccccc12, the AC50 was > 38 µM (inactive).
In the case of Cn1nc(-c2ccccn2)nc2c(=O)n(C)c(=O)nc1-2, the AC50 is reported as 0.176 µM.
Clc1ccc2nnnc(-c3ccccc3)c2c1 gave an AC50 of 9.57 µM.
In the case of Cn1c(SCC(=O)NCc2ccc(F)cc2)nc2ccccc21, the AC50 is reported as > 38 µM (inactive).
O=c1cc(-c2ccc(Br)cc2)[nH][nH]1 gave an AC50 of 13.4 µM.
For O=C1C(Cl)=C(N2CCCCC2)C(=O)N1c1ccccc1Cl, the AC50 was > 38 µM (inactive).
In the case of Cc1[nH][nH]c(=O)c1C(c1ccc(-c2cccc(Cl)c2)o1)c1c(C)[nH][nH]c1=O, the AC50 is reported as > 38 µM (inactive).
In the case of Oc1ccc(N=Cc2sc3ccccc3c2Cl)cc1, the AC50 is reported as > 38 µM (inactive).
Work on Cc1ccc(-n2nc(C)c(NC(=O)CCl)c2C)cc1C yielded an AC50 of 16.1 µM.
Molecule Cc1nn(-c2ccccc2)c(Cl)c1CN(C(=O)CCl)c1ccc(Cl)cc1 has an AC50 of 1.28 µM.
With Cc1ccc(C(c2cc(Cl)c3cccnc3c2O)N2CCN(C)CC2)cc1 (configuration not stated) the AC50 was 19.3 µM.
With COc1cc(C(c2c(C)[nH][nH]c2=O)c2c(C)[nH][nH]c2=O)cc(OC)c1OC the AC50 was 11.8 µM.
For CC(=O)Oc1ccc2ccccc2c1C(NC(=O)Cc1ccccc1)c1ccc(Cl)cc1 (configuration not stated), the AC50 was 4.04 µM.
In the case of Cn1cnc([N+](=O)[O-])c1S(=O)(=O)c1ccc(Cl)cc1, the AC50 is reported as > 38 µM (inactive).
In the case of CCCCCCCCCCCCCCCCn1cc[n+](C)c1, the AC50 is reported as 7.12 µM and 7.27 µM.
For COc1ccc2nc(SCC(=O)NN)cc(C)c2c1, the AC50 was > 38 µM (inactive).
With COc1cc(/C=N/NC(=O)CC2(C)OCCCO2)ccc1OCc1ccccc1 the AC50 was > 38 µM (inactive).
For COc1cc(/C=C(\C#N)C(=O)Nc2ccc3c(c2)OCCO3)ccc1O, the AC50 was > 38 µM (inactive).
With COc1ccccc1/C=C/C1(C(=O)NC2CCCC2)CC(=O)N1c1ccc(C)cc1 (configuration not stated) the AC50 was 13.3 µM.
COc1ccc(-c2cc(=O)n(CCC#N)[nH]2)cc1 gave an AC50 of 3.3 µM.
In the case of CCc1[nH]nc2c1C1(CCN(C(=O)c3ccccc3)CC1)C(C#N)=C(N)O2, the AC50 is reported as 25 µM.
Molecule O=S(=O)(Nc1ccc(O)c2ccccc12)c1ccc(OC(F)(F)F)cc1 has an AC50 of 0.779 µM.
Work on CN(C1=C(NC(=O)c2ccccc2)C(=O)c2ccccc2C1=O)C1CCS(=O)(=O)C1 (configuration not stated) yielded an AC50 of 3.3 µM.
Work on Cc1c(/C=N/Nc2nc3ccccc3[nH]2)c2ccccc2n1C yielded an AC50 of 28.1 µM.
In the case of CCOC(=O)C(C#N)C(c1cccnc1)c1c(C)[nH][nH]c1=O (configuration not stated), the AC50 is reported as > 38 µM (inactive).
In the case of COc1cc(NC(C)CCCN)c2ncccc2c1Oc1ccccc1 (configuration not stated), the AC50 is reported as 15.2 µM.
In the case of CCOc1cccc(-c2cc(=O)[nH][nH]2)c1, the AC50 is reported as 10.7 µM.
O=C(O)COc1ccccc1C(Nc1cccnc1)c1cc(Cl)c2cccnc2c1O (configuration not stated) showed an AC50 of 6.01 µM.
In the case of Cc1ccccc1C(CC(=O)c1cccs1)C(C#N)C#N (configuration not stated), the AC50 is reported as 6.53 µM.
For O=C(O)c1ccc(NC2=C(n3nnc4ccccc43)C(=O)c3ccccc3C2=O)cc1, the AC50 was 3.84 µM.
Cc1[nH]n(-c2ccccc2)c(=O)c1C(C[N+](=O)[O-])c1ccccc1Cl (configuration not stated) showed an AC50 of 7.38 µM.
Work on O=S(=O)(N[C@H]1C[C@@H](NS(=O)(=O)OCC(Cl)(Cl)Cl)C2CCCCC21)OCC(Cl)(Cl)Cl (some centres not stated) yielded an AC50 of 3.37 µM.
COc1ccc(-c2[nH]nc3c2C(c2ccncc2)C(C#N)=C(N)O3)cc1 (configuration not stated) showed an AC50 of 39.9 µM.
Cc1nnc(N/N=C/c2ccccc2O)n1N showed an AC50 of 21.8 µM.
Work on O=c1c(Cl)c(Cl)cnn1Cc1ccccc1Cl yielded an AC50 of 36.8 µM.
With COc1ccc(C(N)c2nccc3cc(OC)c(OC)cc23)cc1OC (configuration not stated) the AC50 was > 38 µM (inactive).
Work on O=C(CCl)N1CCN2C(=O)c3ccccc3C12c1ccc(Cl)cc1 (configuration not stated) yielded an AC50 of 7.81 µM.
In the case of CCc1[nH]nc2c1C(c1ccc(C)o1)C(C#N)=C(N)O2 (configuration not stated), the AC50 is reported as > 38 µM (inactive).
For Cc1[nH]n(-c2ccccc2)c(=O)c1/C=N/NC(=O)c1ccc(O)cc1O, the AC50 was > 38 µM (inactive).
Work on O=C(CCl)Nc1ccccc1C(=O)Nc1ccc2c(c1)OCO2 yielded an AC50 of 10.5 µM.
Work on NC1=C(Br)C(=O)c2ccccc2C1=O yielded an AC50 of 13.1 µM.
With Cc1ccc(N2C(=O)C(Cl)=C(N3CCOCC3)C2=O)cc1Cl the AC50 was > 38 µM (inactive).
With COc1ccc(/C=C2/SC(=S)N(CCCC(=O)Nc3cccc(O)c3)C2=O)cc1 the AC50 was > 38 µM (inactive).
In the case of Cn1cnc([N+](=O)[O-])c1Sc1nnc(-c2cccnc2)n1C, the AC50 is reported as > 38 µM (inactive).
Work on O=C(O)CSc1c2c(nc3cc(C(=O)Nc4cccc(C(F)(F)F)c4)ccc13)CCCC2 yielded an AC50 of 21.7 µM.
O=C(CCl)Nc1ccc(-c2ccccc2)cc1 gave an AC50 of 5.56 µM.
Molecule CCCCCc1cc(=O)oc2c(C(CCN3CCCC(C)C3)c3ccc4c(c3)OCO4)c(OC)cc(OC)c12 (configuration not stated) has an AC50 of 10.5 µM.
In the case of CCOc1cc(/C=C2\C(=O)N(CCC#N)N=C2C)ccc1OCC(N)=O, the AC50 is reported as 12.6 µM.
For C=CCn1c(NC(=O)c2ccc(Br)o2)c(S(=O)(=O)c2ccccc2)c2nc3ccccc3nc21, the AC50 was > 38 µM (inactive).
CCN(CC)C(=O)c1ccc2c(c1)C1C(Cl)C(Sc3ccccc3[N+](=O)[O-])CC1C(C(=O)O)N2 (configuration not stated) showed an AC50 of 12.5 µM.
For Cn1c(=O)c([N+](=O)[O-])c(Cl)c2ccccc21, the AC50 was > 38 µM (inactive).
For CCc1ccc(S(=O)(=O)/N=C2\C=C(Nc3ccc(O)cc3)C(=O)c3ccccc32)cc1, the AC50 was 0.56 µM.
For COCc1[nH]nc2c1C(c1ccsc1)C(C#N)=C(N)O2 (configuration not stated), the AC50 was 35.3 µM.
With O=c1[nH]cc(N=Cc2cc([N+](=O)[O-])ccc2O)c(=O)[nH]1 the AC50 was > 38 µM (inactive).
With Cc1nn(Cc2ccccc2)c2c1C(c1ccncc1)C(C#N)=C(N)O2 (configuration not stated) the AC50 was > 38 µM (inactive).
With COc1cc2c(cc1OC)-c1c(OC)c(OC)cc3c1[C@H](C2)N(C)CC3 the AC50 was 27 µM.
In the case of O=c1cc(-c2cccc3ccccc23)[nH][nH]1, the AC50 is reported as 12.1 µM.
For CCCOC(=O)c1ccc(OC(=O)c2ccco2)cc1, the AC50 was > 38 µM (inactive).
CCCCCCCCCC[N+](C)(C)CC/C=C1/c2ccccc2Sc2ccc(Cl)cc21 showed an AC50 of 5.09 µM.
Molecule CCOc1ccccc1CNc1ccc(O)cc1 has an AC50 of 37.6 µM.
Work on COc1ccc(/C=C2/C(=O)N(c3ccccc3)N=C2C)cc1 yielded an AC50 of 5.27 µM.
In the case of CCc1ccc(NC(=O)c2nc(S(=O)(=O)Cc3ccccc3)ncc2Cl)cc1, the AC50 is reported as > 38 µM (inactive).
Molecule Cc1nc(COC(=O)c2cc(O)c3ccccc3c2O)cs1 has an AC50 of 15.1 µM.
In the case of CS(=O)(=O)C1=NSC2=NC(=O)/C(=C\c3ccc(OC(=O)c4ccco4)cc3)C(=N)N21, the AC50 is reported as > 38 µM (inactive).
For Cn1cnc([N+](=O)[O-])c1Oc1ccc2ccccc2c1, the AC50 was > 38 µM (inactive).
In the case of O=C(CSc1nnc(-c2ccccc2Cl)o1)Oc1ccc(Br)cc1, the AC50 is reported as > 38 µM (inactive).
With CS/C(=C\[N+](=O)[O-])Nc1ccc(OC(F)(F)F)cc1 the AC50 was > 38 µM (inactive).
With CCOC(=O)N/N=C\c1ccc(OC(=O)c2ccco2)cc1 the AC50 was > 38 µM (inactive).
C/C(=N\NC(=O)Cc1cc(=O)[nH][nH]1)c1cccc([N+](=O)[O-])c1 showed an AC50 of 30.5 µM.
In the case of O=C(NCc1cccnc1)/C(=C\c1ccc(-c2ccc(Br)cc2)o1)S(=O)(=O)c1ccccc1, the AC50 is reported as 24.7 µM.
CCOc1ccc(/C=C2\SC(=S)N(CCC(=O)Nc3ccccc3C(=O)O)C2=O)cc1 gave an AC50 of 18.3 µM.
In the case of Cc1ccc(-c2cc(-c3ccc(C)cc3)[n+](-c3ccc(C(=O)[O-])cc3)c(-c3ccc(C)cc3)c2)cc1, the AC50 is reported as 37.5 µM.
In the case of CCOC(=O)c1c(C)oc2c1c(C=NCCC(=O)O)c(O)c1ccccc12, the AC50 is reported as 22.1 µM.
Cc1[nH]n(-c2ccccc2)c(=O)c1C(c1ccc(C(=O)O)cc1)c1c(C)[nH]n(-c2ccccc2)c1=O gave an AC50 of 2.11 µM.
With C/C(CC(=O)Nc1ccccn1)=N\NC(=O)c1ccc(C)cc1 the AC50 was > 38 µM (inactive).
In the case of Nc1ccc2nc(N3CCOCC3)sc2c1, the AC50 is reported as > 38 µM (inactive).

— PubChem BioAssay AID449750 (Broad Institute, 2010)
